# According to article PMC3878761, “Interactions of peptide triazole thiols with Env gp120 induce irreversible breakdown and inactivation of HIV-1 virions” (Retrovirology, 2013):
# Where “and” joins values, the source holds several entries; their conditions need not be identical. Equal entries are not always repeated. Entries after “also recorded” stand apart in the source; their conditions may differ. Where two headings read alike, the source gives them in different places. Starred links: 1 amine or outer side, 2 acyl side, 3 side chain; linkers in the order of their positions; H or OH if unused. Non-standard residues stand in square brackets, D forms with d. Residues, ends and D or L forms follow the SMILES beside them. X1 = O=C([C@@H]1C[C@H](n2cc([C]34[CH]5[CH]6[CH]7[CH]3[Fe]6754389%10[CH]4[CH]3[CH]8[CH]9[CH]4%10)nn2)CN1[*:1])[*:2]; βAla = NCCC(=O)O
# Key:
# HIV-1 BaL pseudovirus [1] = experiment: p24 release from HIV-1 BaL pseudovirus (ELISA); details: ELISA
# [2] = test system: gp41 of HIV-1 BaL pseudovirus (4E10 epitope); experiment: exposure of gp41 MPER epitope, 4E10 ELISA; details: fixed BaL pseudovirions, 30 min at 37°C (dose) or 1 μM (time), n = 3
# Experimental: (§1) We also measured the presence of gp41 epitopes for human mAb’s 2 F5 and 4E10 using an altered ELISA detection method to minimize virus particle disruption. […] Virus fractions were collected and fixed with equal volume of 0.1% paraformaldehyde for 30 minutes at 4°C. The treated virus fractions were spun at 16,000 X g for 2 hours at 4°C in an Eppendorf table top centrifuge. Following PBS wash, fixed virions were coated on an ELISA plate at 50 μl per well and incubated overnight at 4°C. The plate was blocked with 3% BSA, and ELISA was used to detect gp41 epitopes with human gp41 antibodies 2 F5 and 4E10 followed by addition of anti-human IgG HRP secondary antibody.
# [3] = test system: fully infectious HIV-1 BaL virions; experiment: gp120 shedding from fully infectious HIV-1 BaL; details: read-out: gp120 shedding IC50 (*, fully infectious), 30 min at 37°C, western blot, ± SD
# Experimental: (§2) The replication competent virions were assayed for peptide triazole-induced inhibition of infection, gp120 shedding and p24 release in a BSL-2 facility. Gradient purification of the viruses and p24 release assays were performed as with pseudoviruses (described in Materials and Methods above). Cell infection by virus and its inhibition by peptide triazoles were tested using a modified version of a previously reported p24 ELISA assay [60]. The p24 release assays as well as detection of gp120 shedding were conducted as with the BaL pseudovirions (described in Materials and Methods above).
# (§3) Virions were purified using 6-20% iodixanol gradient and p24 content measured using ELISA. […] HOS CD4^+ve CCR5^+ve cells seeded, at 8,000 cells per well in a 96 well plate, were incubated for 24 hours followed by addition of pre-incubated inhibitor-virus mixture. […] Further, the peptide triazole and cell-free virus were pre-incubated for 30 min at 37°C followed by spinning for 2 hours at 13,600 rpm in a table top centrifuge (Eppendorf) at 4°C. Supernatant was separated and p24 content determined using the p24 capture ELISA (explained in the main Materials and Methods section) and gp120 using western blot analysis (explained in the Supplementary Text above).
# [4] = test system: gp41 of HIV-1 BaL pseudovirus (98–6 epitope); experiment: gp41 content of treated virions, mAb 98-6 western blot; details: western blot mAb 98–6, BaL pseudovirus
# [5] = test system: fully infectious HIV-1 BaL virions; details: upto 200 µM, n = 3
# Experimental: as §2, §3
# HIV-1 YU2 gp120 = molecular target: T1, HIV-1 YU2 gp120 (Human immunodeficiency virus type 1 group M subtype B, UniProt P35961); experiment: SPR direct binding to immobilized YU2 gp120; details: immobilized YU2 gp120, PBS + 0.005% Tween 20, pH 7.2, 25°C
# T1 construct: made in house; host or cells: 293F cells
# Experimental: (Additional file 1: Figure S2). […] Direct binding of the peptide triazole to sensor chip immobilized HIV-1 YU2 gp120 was measured as previously described using Surface Plasmon Resonance (SPR) with a Biacore 3000 optical biosensor (GE Healthcare). […] The cell viability was measured using the tetrazolium salt premix reagent, WST-1 from Takara Bio Inc. following the manufacturer’s protocol. The formazan product was measured using the microplate reader at absorbance wavelength 460 nm (Molecular Devices).
# [6] = test system: gp41 of HIV-1 BaL pseudovirus (2 F5 epitope); experiment: exposure of gp41 MPER epitope, 2 F5 ELISA; details: fixed BaL pseudovirions, 30 min at 37°C (dose) or 1 μM (time), n = 3
# Experimental: as §1
# HIV-1 BaL pseudovirus [7] = test system: HIV-1 BaL pseudovirus
# HIV-1 BaL pseudovirus [8] = experiment: gp120 shedding from HIV-1 BaL pseudovirus (western blot)
# [9] = molecular target: T2, 17b binding to plate-immobilized YU2 gp120 (Human immunodeficiency virus type 1 group M subtype B, UniProt P35961); experiment: competition ELISA, mAb 17b binding to gp120; parameters: species or system HIV-1; details: m17b binding to plate-immobilized gp120, ± SD, n > 3
# T2 construct: made in house; host or cells: 293F cells
# [10] = molecular target: T3, sCD4 binding to plate-immobilized YU2 gp120 (Human immunodeficiency virus type 1 group M subtype B, UniProt P35961); experiment: competition ELISA, sCD4 binding to gp120; parameters: species or system HIV-1; details: ± SD, n > 3
# T3 construct: made in house; host or cells: 293F cells
# CD4^-ve CCR5^+ve cells = details: cited from earlier work
# Experimental: The same incubation conditions were used as for inhibition of HIV-1 entry into HOS […] cells.
# [11] = molecular target: HIV-1 BaL Env gp120 on virions (HIV-1 BaL)
# [12] = test system: R5-tropic and X4-tropic HIV-1; parameters: method as in 2 sources, one per row (each row's own in cited_ref): ref 7-9, 12 = [7]; PMID 20518583; doi:10.2165/11203940-000000000-00000; Perry CM Maraviroc: a review of its use in the management of CCR5-tropic HIV-1 infection Drugs 2010 10 9 1189 1213 10.2165/11203940-000000000-00000 20518583 || [8]; PMID 23541872; doi:10.1016/j.antiviral.2013.03.017; Haqqani AA Tilton JC Entry inhibitors and their use in the treatment of HIV-1 infection Antiviral Res 2013 10 2 158 170 10.1016/j.antiviral.2013.03.017 23541872 || [9]; PMID 23290628; doi:10.1016/j.coviro.2012.12.002; Henrich TJ Kuritzkes DR HIV-1 entry inhibitors: recent development and clinical use Curr Opin Virol 2013 10 1 51 57 10.1016/j.coviro.2012.12.002 23290628 PMC4213740 || [12]; PMID 17933722; Emmelkamp JM Rockstroh JK CCR5 antagonists: comparison of efficacy, side effects, pharmacokinetics and interactions–review of the literature Eur J Med Res 2007 10 9 409 417 17933722 ||| ref 34 = [34]; PMID 23470147; doi:10.1021/bi400166b; Emileh A Tuzer F Yeh H Umashankara M Moreira DR Lalonde JM Bewley CA Abrams CF Chaiken IM A model of peptide triazole entry inhibitor binding to HIV-1 gp120 and the mechanism of bridging sheet disrupt; details: cited from earlier work
# HIV-1 BaL pseudovirus [13] = details: KR13 1 μM, T20 dilutions from 1 μM, 30 min at 37°C, p24 ELISA, ± SD, n = 3
# Experimental: (§4) Treated virion samples were fractionated on a 6-20% iodixanol gradient (above). Gradient fractions were quantified for p24 using ELISA, and relative p24 release was quantified and plotted using the Origin Pro.8 (Origin Lab). Collected gradient fractions also were analyzed for gp120 shedding using western blot analysis, with detection using primary antibody D7324 and secondary anti-sheep HRP. The bands of the blot were analyzed using Image J software. The IC50 values were calculated using Origin Pro.8 (Origin Lab).
# HIV-1 BaL pseudovirus [14] = experiment: T20 effect on KR13-induced gp120 shedding, BaL; details: KR13 1 μM, T20 up to 1 μM, western blot, n = 3
# Experimental: as §4
# [15] = parenteral; cited from earlier work
# Text: There is an urgent need for new antiretroviral agents for the prevention and treatment of HIV-1. Most of the currently approved HIV drugs target viral enzymes, in particular reverse transcriptase, protease and integrase. In contrast, the number of anti-HIV drugs targeting the entry process is more limited. The proteins involved in HIV-1 entry include gp120 and gp41 organized as a trimer on the viral envelope spike, and both CD4 and a chemokine receptor, either CCR5 or CXCR4, on the cell surface. The fusion inhibitor enfuvirtide (T20) and the CCR5 inhibitor maraviroc are t ...
compound,measurement,setting,value
CC[C@H](C)[C@H](NC(=O)[C@@H](N)CCCNC(=N)N)C(=O)N[C@@H](CC(N)=O)C(=O)N[C@@H](CC(N)=O)C(=O)N[C@H](C(=O)N1C[C@@H](n2cc([C]34[CH]5[CH]6[CH]7[CH]3[Fe]6754389%10[CH]4[CH]3[CH]8[CH]9[CH]4%10)nn2)C[C@H]1C(=O)N[C@@H](Cc1c[nH]c2ccccc12)C(=O)N[C@@H](CO)C(=O)N[C@@H](CCC(=O)O)C(=O)N[C@@H](C)C(=O)N[C@@H](CCSC)C(=O)N[C@@H](CCSC)C(N)=O)[C@@H](C)CC (stereo partly shown) [HNG156],"p24 release, in words",HIV-1 BaL pseudovirus [1],neither of these peptides caused p24 release
same,reactivity to 4E10,[2],MPER epitopes were poorly exposed
same,IC50,[3],1.8 µM
same,gp41 retention / 98–6 detection,[4],gp41 remained associated with virions
same,"p24 release, fully infectious, in words",[5],No p24 release was observed
same,"SPR direct binding to gp120, in words",HIV-1 YU2 gp120,bound to gp120
same,reactivity to 2 F5,[6],MPER epitopes were poorly exposed
same,kinetics of infectivity inhibition versus gp120 shedding,"HIV-1 BaL pseudovirus [7]; KR13 1 μM or HNG156 100 μM, 1 min to 24 hours, 37°C",infectivity inhibition and gp120 shedding had similar kinetics
same,"gp120 shedding, in words",HIV-1 BaL pseudovirus [8],caused gp120 shedding; also recorded: induced only gp120 shedding
CC[C@H](C)[C@H](NC(=O)[C@@H](N)CCCNC(=N)N)C(=O)N[C@@H](CC(N)=O)C(=O)N[C@@H](CC(N)=O)C(=O)N[C@H](C(=O)N1C[C@@H](n2cc([C]34[CH]5[CH]6[CH]7[CH]3[Fe]6754389%10[CH]4[CH]3[CH]8[CH]9[CH]4%10)nn2)C[C@H]1C(=O)N[C@@H](Cc1c[nH]c2ccccc12)C(=O)N[C@@H](CO)C(=O)N[C@@H](CCC(=O)O)C(=O)N[C@@H](C)C(=O)N[C@@H](CCSC)C(=O)N[C@@H](CCSC)C(=O)NCCC(=O)N[C@@H](CCC(N)=O)C(=O)NCCC(=O)N[C@@H](CSCNC(C)=O)C(N)=O)[C@@H](C)CC (stereo partly shown) [KR13b],"p24 release, in words",HIV-1 BaL pseudovirus [1],neither of these peptides caused p24 release
same,"SPR direct binding to gp120, in words",HIV-1 YU2 gp120,bound to gp120
same,"gp120 shedding, in words",HIV-1 BaL pseudovirus [8],caused gp120 shedding; also recorded: induced only gp120 shedding
CC[C@H](C)[C@H](NC(=O)[C@H](CC(N)=O)NC(=O)[C@H](CC(N)=O)NC(=O)[C@@H](NC(=O)[C@@H](N)CCCNC(=N)N)[C@@H](C)CC)C(=O)N[C@@H](Cc1c[nH]c2ccccc12)C(=O)N1C[C@@H](n2cc([C]34[CH]5[CH]6[CH]7[CH]3[Fe]6754389%10[CH]4[CH]3[CH]8[CH]9[CH]4%10)nn2)C[C@H]1C(=O)N[C@@H](CO)C(=O)N[C@@H](CCC(=O)O)C(=O)N[C@@H](C)C(=O)N[C@@H](CCSC)C(=O)N[C@@H](CCSC)C(=O)NCCC(=O)N[C@@H](CCC(N)=O)C(=O)NCCC(=O)N[C@@H](CS)C(N)=O (stereo partly shown) [KR13s] (H-RINNIW[X1]SEAMM[βAla]Q[βAla]C-NH2; N-terminus assumed),"IC50, 17b competition",[9],undetected
same,"SPR direct binding to gp120, in words",HIV-1 YU2 gp120,low and inconsistent dose dependent signals
same,"IC50, sCD4 competition",[10],undetected
same,"inhibition of infection, in words",HIV-1 BaL pseudovirus [7]; single round infection assay,inactive
same,"gp120 shedding, in words",HIV-1 BaL pseudovirus [8],"not the KR13s control, caused gp120 shedding"
CC1(C)CC(NC(=O)C(=O)Nc2ccc(Cl)cc2)CC(C)(C)N1 [NBD-556],"activation of infection, CD4^-ve CCR5^+ve cells (NBD-556)",CD4^-ve CCR5^+ve cells,can activate infection in CD4^-ve CCR5^+ve cells
KR13b (KR13 with the thiol blocked with an acetamidomethyl (ACM) group) (peptide),"gp120 shedding from HIV-1 BaL pseudovirus (western blot), IC50",[11],0.12 µM
same,"inhibition of cell infection (viral inactivation), HIV-1 BaL pseudovirus, EC50",[11],0.052 µM
Maraviroc [reference compound],antiviral tropism,[12],blocks R5-tropic but not X4-tropic HIV-1
enfuvirtide,IC50,HIV-1 BaL pseudovirus [13],0.015 µM and 0.0159 µM
same,effect of T20 on KR13-induced gp120 shedding,HIV-1 BaL pseudovirus [14],did not affect gp120 shedding caused by KR13; also recorded: No significant effect on the gp120 release
same,adverse reactions at sites of injection,[15],adverse reactions at sites of injection are common
same,IC50,"HIV-1 BaL pseudovirus [7]; read-out: IC50, infection inhibition, BaL (Figure S9), Figure S9, ± SD, n = 3",0.0345 ± 0.0012 µM
